pIC50: −log10 of the molar value. Where a name gives a salt, the structure may show the parent alone.
Test system: cultured murine melanocytes (melan-a)
Assay: Melanin assay in cultured murine melanocytes (melan-a)
Assay type: cell-based
Settings: Mus musculus, melan-a cells; for inhibition at 1 µM / inhibition at 5 µM: melanin formation, 72 hours of incubation; for pIC50: melanin synthesis, read-out: IC50 range
Method: The Spectrum Collection library consisting of 2000 drug compounds or natural products was screened to identify novel pigmentation inhibitors or stimulators in cultured murine melanocytes (melan-a). Compounds were dissolved in dimethylsulfoxide (DMSO) to a final concentration of 10 mM. Screening was performed with cultured melanocytes in 24-well plates followed by melanin assay (see below). […] DMSO was used as a negative control and the widely used depigmenting agent, hydroquinone, was used as a positive control on every plate. […] All compounds were added at the indicated final concentrations. Cells were harvested after 72 hours of incubation, and melanin assay was performed. For further test and mechanism of action studies, the compounds were purchased from either Sigma or Microsoure. These compounds were dissolved in dimethylsulfoxide (DMSO) to a final concentration of 10 mM, and were tested for their effect on melanin synthesis at the indicated final concentrations. For the primary and secondary screening, cells were harvested and dissolved in 200 μl of 2N NaOH in 20% DMSO at 70° C. A 180-μl aliquot of the resulting solution was measured for absorbance at 490 nm. […] The lysates were centrifuged at 14,000 rpm for 10 minutes at 4° C. BCA protein assay kit (Pierce) was used to measure the protein concentrations of the supernatants, and bovine serum albumin was used as a standard. […] A 180-μl aliquot of the resulting solution was measured for absorbance at 490 nm. The melanin contents were normalized to the total amount of protein.

| pIC50 | SMILES | inhibition at 1 µM [%] | inhibition at 5 µM [%] |
| --- | --- | --- | --- |
| > 6.00 | CN(C)CCC=C1c2ccccc2CCc2ccccc21 [compound 2, Amitriptyline hydrochloride] | 51 | 65 |
| 5.60 to 6.00 | CC(CN(C)C)CN1c2ccccc2CCc2ccccc21 (centres unmarked) [compound 3, Trimpramine maleate] | 28 | 48 |
| > 6.00 | CN(C)CCCN1c2ccccc2CCc2ccccc21 [compound 5, Imipramine hydrochloride] | 34 | 60 |
| 5.30 to 5.60 | CNCCCN1c2ccccc2CCc2ccccc21 [compound 6, Despramine hydrochloride] |  |  |
| 5.00 to 5.30 | CNCCCC1c2ccccc2C=Cc2ccccc21 [compound 8, Protriptyline hydrochloride] |  |  |

| SMILES | pIC50 | inhibition at 1 µM [%] | inhibition at 5 µM [%] |
| --- | --- | --- | --- |
| CNCCC=C1c2ccccc2CCc2ccccc21 [compound 1, Nortriptyline] | 5.60 to 6.00 | 39 | 58 |

— patent US20090304615A1, “TRICYCLIC COMPOUNDS AS MELANOGENESIS MODIFIERS AND USES THEREOF” (priority 2007, published 2009)
